Results taken from PubChem BioAssay AID1259411 (Chemical Carcinogenesis Research Information System (CCRIS), 2018).
Active and inactive are the calls of the source. The rule behind the calls is not given here.

Test system: rodent carcinogenicity bioassays, tumor incidence
Experiment: CCRIS carcinogenicity studies
How it was run: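 NCI-built, expert-reviewed records of carcinogenicity and related test outcomes (mutagenicity, tumor promotion/inhibition) compiled from published and report sources, historical span 1985-2011, not updated.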

Measured: carcinogen call

CCN(CC)N=O
active: Species: DOG, Route: ORAL, Tumor Site: Type of Lesion: LIVER active; positive | Species: FISH, Route: ORAL, Tumor Site: Type of Lesion: LIVER active; positive | Species: FISH, Strain/Sex: GUPPY POECILIA RETICULATA/MALE, FEMALE, Route: IMMERSION, Dose: 0, 29.4 MG/L IN WATER FOR 28 D (STUDY DURATION: 6 MONTHS), Tumor Site: Type of Lesion: LIVER: MULTIFOCAL HEPATOMA, CHOLANGIOMA active; positive | Species: FISH, Strain/Sex: MEDAKA/MALE,FEMALE, Route: IMMERSION, Dose: 0, 390 PPM IN AQUEOUS BATH FOR 48 HR (STUDY DURATION: 7 MO), Tumor Site: Type of Lesion: LIVER: TUMOR active; positive | Species: FISH, Strain/Sex: SHASTA RAINBOW TROUT/FEMALE, Route: ORAL, Dose: 0, 4, 70, 275, 550, 1100 PPM IN DIET FOR 12 MO (STUDY DURATION: 18 MO), Dose: 0, 4, 70, 275, 550, 1100 PPM IN DIET FOR 12 MO (STUDY DURATION: 18 MO), Tumor Site: Type of Lesion: LIVER: TUMOR active; positive | Species: FISH, Strain/Sex: SHASTA RAINBOW TROUT/MALE, Route: ORAL, Dose: 0, 4, 70, 275, 550, 1100 PPM IN DIET FOR 12 MO (STUDY DURATION: 18 MO), Dose: 0, 4, 70, 275, 550, 1100 PPM IN DIET FOR 12 MO (STUDY DURATION: 18 MO), Tumor Site: Type of Lesion: LIVER: TUMOR active; positive | Species: GUINEA PIG, Route: ORAL, SUBCUTANEOUS, Tumor Site: Type of Lesion: LIVER active; positive | Species: HAMSTER, Route: DERMAL, Tumor Site: Type of Lesion: NASAL CAVITY active; positive | Species: HAMSTER, Route: INHALATION, Tumor Site: Type of Lesion: TRACHEA, LUNG active; positive | Species: HAMSTER, Route: INTRAPERITONEAL, Tumor Site: Type of Lesion: TRACHEA, NASAL CAVITY, BRONCHI, LIVER, Tumor Site: Type of Lesion: TRACHEA, NASAL CAVITY, BRONCHI, LIVER active; positive | Species: HAMSTER, Route: ORAL, Tumor Site: Type of Lesion: TRACHEA, LUNG, NASAL CAVITY, BRONCHI, LIVER, FORESTOMACH, ESOPHAGUS, Tumor Site: Type of Lesion: TRACHEA, LUNG, NASAL CAVITY, BRONCHI, LIVER, FORESTOMACH, ESOPHAGUS active; positive | Species: HAMSTER, Route: SUBCUTANEOUS, Tumor Site: Type of Lesion: NASAL CAVITY, BRONCHI, TRACHEA, LUNG, LIVER, FORESTOMACH, ESOPHAGUS, Tumor Site: Type of Lesion: NASAL CAVITY, BRONCHI, TRACHEA, LUNG, LIVER, FORESTOMACH, ESOPHAGUS active; positive | Species: HAMSTER, Strain/Sex: SYRIAN/FEMALE, Route: INTRATRACHEAL, Dose: 0, 1 MG IN 0.1 ML PHOSPHATE BUFFER 15/WK FOR 4 MO (STUDY DURATION: 237 D), Tumor Site: Type of Lesion: LUNG: ADENOMA OR CARCINOMA, TRACHEA: PAPILLOMA active; positive | Species: HAMSTER, Strain/Sex: SYRIAN/MALE, Route: INTRATRACHEAL, Dose: 0, 0.1, 0.5 MG IN PHOSPHATE BUFFER 1/WK FOR 15 WK (TOTAL DOSE; 1.5; 7.5 MG) (STUDY DURATION: LIFESPAN), Dose: 0, 0.1, 0.5 MG IN PHOSPHATE BUFFER 1/WK FOR 15 WK (TOTAL DOSE; 1.5; 7.5 MG) (STUDY DURATION: LIFESPAN), Tumor Site: Type of Lesion: TRACHEA: PAPILLOMA, LUNG: ADENOMA, SQUAMOUS CARCINOMA, ADENOCARCINOMA, LIVER: HEPATOCELLULAR CARCINOMA, Tumor Site: Type of Lesion: TRACHEA: PAPILLOMA, LUNG: ADENOMA, SQUAMOUS CARCINOMA, ADENOCARCINOMA, LIVER: HEPATOCELLULAR CARCINOMA active; positive | Species: MONKEY, Route: ORAL, INTRAPERITONEAL, Tumor Site: Type of Lesion: LIVER active; positive | Species: MOUSE, Route: DERMAL, Tumor Site: Type of Lesion: NASAL CAVITY active; positive | Species: MOUSE, Route: ORAL, Tumor Site: Type of Lesion: LIVER, ESOPHAGUS, LUNG, FORESTOMACH, Tumor Site: Type of Lesion: LIVER, ESOPHAGUS, LUNG, FORESTOMACH active; positive | Species: MOUSE, Route: SUBCUTANEOUS, INTRAPERITONEAL, Tumor Site: Type of Lesion: LUNG active; positive | Species: MOUSE, Strain/Sex: AKR/MALE, Route: ORAL, Dose: 0, 100 PPM IN DRINKING WATER FOR DURATION OF STUDY (STUDY DURATION: 150 D), Tumor Site: Type of Lesion: LUNG: TUMOR active; positive | Species: MOUSE, Strain/Sex: B6C3F1/FEMALE, Route: INTRAPERITONEAL, Dose: 0, 1.5, 3 UG IN 0.01 ML TRIOCTANOIN/G BW INITIAL DOSE GIVEN ON DAY 1 OF AGE AND 3 SUBSEQUENT DOSES GIVEN 3, 9 AND 15 DAY, Dose: 0, 1.5, 3 UG IN 0.01 ML TRIOCTANOIN/G BW INITIAL DOSE GIVEN ON DAY 1 OF AGE AND 3 SUBSEQUENT DOSES GIVEN 3, 9 AND 15 DAY, Tumor Site: Type of Lesion: LIVER: ADENOMA, CARCINOMA, LUNG: TUMORS active; positive | Species: MOUSE, Strain/Sex: B6C3F1/FEMALE, Route: INTRAPERITONEAL, Dose: 0, 1.5, 3 UG IN 0.01 ML TRIOCTANOIN/G BW INITIAL DOSE GIVEN ON DAY 15 OF AGE AND 3 SUBSEQUENT DOSES GIVEN 3, 9 AND 15 DA, Dose: 0, 1.5, 3 UG IN 0.01 ML TRIOCTANOIN/G BW INITIAL DOSE GIVEN ON DAY 15 OF AGE AND 3 SUBSEQUENT DOSES GIVEN 3, 9 AND 15 DA, Tumor Site: Type of Lesion: LIVER: ADENOMA, CARCINOMA, LUNG: TUMORS active; positive | Species: MOUSE, Strain/Sex: B6C3F1/FEMALE, Route: INTRAPERITONEAL, Dose: 0, 1.5, 3 UG IN 0.01 ML TRIOCTANOIN/G BW INITIAL DOSE GIVEN ON DAY 42 OF AGE AND 3 SUBSEQUENT DOSES GIVEN 3, 9 AND 15 DA, Dose: 0, 1.5, 3 UG IN 0.01 ML TRIOCTANOIN/G BW INITIAL DOSE GIVEN ON DAY 42 OF AGE AND 3 SUBSEQUENT DOSES GIVEN 3, 9 AND 15 DA, Tumor Site: Type of Lesion: LIVER: ADENOMA, CARCINOMA, LUNG: TUMORS active; positive | Species: MOUSE, Strain/Sex: B6C3F1/MALE, Route: INTRAPERITONEAL, Dose: 0, 0.02, 0.07 UMOL/G BW IN 10 µL/G BW TRIOCTANOIN ONCE AT 12 D OF AGE (STUDY DURATION: 9 MO), Dose: 0, 0.02, 0.07 UMOL/G BW IN 10 µL/G BW TRIOCTANOIN ONCE AT 12 D OF AGE (STUDY DURATION: 9 MO), Tumor Site: Type of Lesion: LIVER: HEPATOMA active; positive | Species: MOUSE, Strain/Sex: B6C3F1/MALE, Route: INTRAPERITONEAL, Dose: 0, 1.5, 3 UG IN 0.01 ML TRIOCTANOIN/G BW INITIAL DOSE GIVEN ON DAY 1 OF AGE AND 3 SUBSEQUENT DOSES GIVEN 3, 9 AND 15 DAY, Dose: 0, 1.5, 3 UG IN 0.01 ML TRIOCTANOIN/G BW INITIAL DOSE GIVEN ON DAY 1 OF AGE AND 3 SUBSEQUENT DOSES GIVEN 3, 9 AND 15 DAY, Tumor Site: Type of Lesion: LIVER: ADENOMA, CARCINOMA, LUNG: TUMORS active; positive | Species: MOUSE, Strain/Sex: B6C3F1/MALE, Route: INTRAPERITONEAL, Dose: 0, 1.5, 3 UG IN 0.01 ML TRIOCTANOIN/G BW INITIAL DOSE GIVEN ON DAY 15 OF AGE AND 3 SUBSEQUENT DOSES GIVEN 3, 9 AND 15 DA, Dose: 0, 1.5, 3 UG IN 0.01 ML TRIOCTANOIN/G BW INITIAL DOSE GIVEN ON DAY 15 OF AGE AND 3 SUBSEQUENT DOSES GIVEN 3, 9 AND 15 DA, Tumor Site: Type of Lesion: LIVER: ADENOMA, CARCINOMA, LUNG: TUMORS active; positive | Species: MOUSE, Strain/Sex: B6C3F1/MALE, Route: INTRAPERITONEAL, Dose: 0, 1.5, 3 UG IN 0.01 ML TRIOCTANOIN/G BW INITIAL DOSE GIVEN ON DAY 42 OF AGE AND 3 SUBSEQUENT DOSES GIVEN 3, 9 AND 15 DA, Dose: 0, 1.5, 3 UG IN 0.01 ML TRIOCTANOIN/G BW INITIAL DOSE GIVEN ON DAY 42 OF AGE AND 3 SUBSEQUENT DOSES GIVEN 3, 9 AND 15 DA, Tumor Site: Type of Lesion: LIVER: ADENOMA, CARCINOMA, LUNG: TUMORS active; positive
